This is an account of results in patent US6605589B1, “Cathepsin inhibitors in cancer treatment” (Parker Hughes Institute, priority 2000, dated 2003).

Residues, ends and D or L forms follow the SMILES beside them. *: point of attachment. Cbz = O=C(OCc1ccccc1)*; CH2F = FC*

The test system of the assay is SQ-20B, BT-20, U373, HeLa and NCI-H520 cells. Description: CATI-1 induced apoptosis in presence of caspase inhibitor I (flow cytometry). Particulars: 50 μM caspase inhibitor I with 50 μM CATI-1, 24 hours; any cell line tested. Format: cell-based, human. Here is the method: The percentages indicate the fraction of cells at an early stage of apoptosis (lower right quadrant), as measured by single MC540 fluorescence, and the fraction of cells at an advanced stage of apoptosis (upper right quadrant).
Quantitative flow cytometric apoptosis detection assays were performed on BT-20 (breast cancer), PC-3 (prostate cancer), U373 (glioblastoma), SQ20B (squamous cell carcinoma), HeLa (cervix cancer), and DU145 (prostate cancer). Just prior to the assay, one mg/ml stock solutions of MC540 (Sigma, St. Louis, Mo.) and PI (Sigma, St. Louis, Mo.) were filtered through a 0.22 μm filter and stored at 4° C. in the dark. […] Stained cells were analyzed with a FACStar Plus flow cytometer (Becton Dickinson, San Jose, Calif.) using the 488-nm excitation from an argon laser. […] In each experiment approximately 10,000 cells were analyzed by FACS and the percentage of cells at early (MC540 fluorescence only) and advanced (dual MC540 plus PI fluorescence) stages of apoptosis obtained.
Human cancer cell lines were treated with 50 μM CATI-1 in the presence and absence of 50 μM caspase inhibitor I (Z-Val-Ala-Asp(Ome)-CH2F) (Calbiochem, La Jolla, Calif.) for 24 hours to determine whether caspases were required for cathepsin inhibitor activity. […] Quantitative flow cytometric apoptosis detection assays were performed on treated cells as previously discussed in Example II.
Background: A flow cytometer gives signals particle by particle.

With `COC(=O)C[C@H](NC(=O)[C@H](C)NC(=O)[C@@H](NC(=O)OCc1ccccc1)C(C)C)C(=O)CF` [caspase inhibitor I, Z-Val-Ala-Asp(Ome)-CH2F] (Cbz-Val-Ala-Asp(OMe)-CH2F), the “impact on CATI-1 induced apoptosis” value is on record as “no detectable impact”.
